Here are results for 16 compounds from US12564638B2 (SHANGHAITECH UNIVERSITY, priority 2019, dated 2026).

In assay [1] the test system is HCC827 cells (EGFR Exon19 del, non-small cell lung cancer cells). Kind of assay: Cell viability assay (WST/CCK8), HCC827 cells. The format is cell-based. Conditions: Homo sapiens, HCC827, 72 h, HCC827 (Exon19 Del), 72 hours, read-out: IC50 (half inhibitory concentration). The essentials:
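Plated 3 000 cells/well in complete RPMI1640 the day before dosing; controls were DMSO (negative) and EGFR TKIs (positive).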

In assay [2] the test system is PC9 cells (EGFR Exon 19 del, non-small cell lung cancer cells). Nature of the assay: Cell viability assay (WST/CCK8), PC9 cells. The format is cell-based. Conditions: Homo sapiens, PC-9, PC9 (Exon19 Del), 72 hours, read-out: IC50 (half inhibitory concentration). The text has this:
The cell lines with abnormal EGFR expression used are as follows: • HCC827 cells (EGFR Exon19 del, non-small cell lung cancer cells); • PC9 cells (EGFR Exon 19 del, non-small cell lung cancer cells); • PC9BracA1 (EGFR Exon 19 del+T790M, non-small cell lung cancer cells) • H1975 (EGFR Exon T790M+L858R mutation, non-small cell lung cancer cell line) • BT474 cells (HER2 positive breast cancer cells)
All of the half inhibitory concentrations (IC50) of these compounds of the present invention were determined with WST reagent from Fuyuan Biotec Company. The specific experiment procedures are as follows: Cancer cells were planted in 96-well-plate at the density of 3 000 cells per well with 100 μL RPMI1640 completed culture medium. In the next day, compounds with indicated concentrations were added to the cells, DMSO was used as the negative control and the EGFR TKIs were used to treat cells as the positive groups. After 72 hours drug treatment, cell viability was measured by using the WST reagent following the instructions.
The cells were treated with the gradient concentration of these compounds (the maximum concentration: 10 μM; 3-fold dilution ratio, 10 concentration gradients) for 72 hours and then incubated with the WST (CCK8) reagent to determine the cell viability.

Where [3] appears, read: Table 6, canertinib-based compounds, WST.

pIC50: −log10 of the molar value. Where two headings read alike, the source gives them in different places.

In the case of `COc1cc2ncnc(Nc3ccc(F)c(Cl)c3)c2cc1NC(=O)/C=C/CN1CCN(C(=O)CCCSc2cccc3c2CN(C2CCC(=O)NC2=O)C3=O)CC1` (centres unmarked) [SIAIS219187, (E)-N-(4-((3-chloro-4-fluorophenyl)amino)-7-methoxyquinazolin-6-yl)-4-(4-(4-((2-(2,6-dioxopiperidin-3-yl)-1-oxoisoindolin-4-yl)thio)butanoyl)piperazin-1-yl)but-2-enamide], the pIC50 in assay [1] (WST (CCK8)) is 8.17; in assay [2] (WST (CCK8)), 7.48.
With `COc1cc2ncnc(Nc3ccc(F)c(Cl)c3)c2cc1NC(=O)/C=C/CN1CCC(N2CCN(C(=O)COc3cccc4c3CN(C3CCC(=O)NC3=O)C4=O)CC2)CC1` (centres unmarked) [SIAIS337025, (E)-N-(4-((3-chloro-4-fluorophenyl)amino)-7-methoxyquinazolin-6-yl)-4-(4-(4-(2-((2-(2,6-dioxopiperidin-3-yl)-1-oxoisoindolin-4-yl)oxy)acetyl)piperazin-1-yl)piperidin-1-yl)but-2-enamide], the results for the pIC50 in assay [1] (WST (CCK8)) and in assay [2] (WST (CCK8)) were 8.25 and 7.44, respectively.
For the compound `COc1cc2ncnc(Nc3ccc(F)c(Cl)c3)c2cc1NC(=O)/C=C/CN1CCN(C(=O)CCCCCNc2cccc3c2C(=O)N(C2CCC(=O)NC2=O)C3=O)CC1` (centres unmarked) [SIAIS249049, (E)-N-(4-((3-chloro-4-fluorophenyl)amino)-7-methoxyquinazolin-6-yl)-4-(4-(6-((2-(2,6-dioxopiperidin-3-yl)-1,3-dioxoisoindolin-4-yl)amino)hexanoyl)piperazin-1-yl)but-2-enamide], the pIC50 in assay [1] (WST (CCK8)) is 8.34; in assay [2] (WST (CCK8)), 7.80.
With `COc1cc2ncnc(Nc3ccc(F)c(Cl)c3)c2cc1NC(=O)/C=C/CN1CCN(C(=O)COCCOCCOCCOCCOCCSc2cccc3c2CN(C2CCC(=O)NC2=O)C3=O)CC1` (centres unmarked) [SIAIS262004, (E)-N-(4-((3-chloro-4-fluorophenyl)amino)-7-methoxyquinazolin-6-yl)-4-(4-(17-((2-(2,6-dioxopiperidin-3-yl)-1-oxoisoindolin-4-yl)thio)-3,6,9,12,15-pentaoxaheptadecan-1-oyl)piperazin-1-yl)but-2-enamide], the pIC50 in assay [1] (WST (CCK8)) was 8.14; in assay [2] (WST (CCK8)), 7.82.
With `C=CC(=O)Nc1cc2c(Nc3ccc(F)c(Cl)c3)ncnc2cc1OCCCN1CCC(N2CCNCC2)CC1` [Caneritinib derivative B (SIAIS249183), N-(4-((3-chloro-4-fluorophenyl)amino)-7-(3-(4-(piperazin-1-yl)piperidin-1-yl)propoxy)quinazolin-6-yl)acrylamide], the pIC50 was 7.80 in assay [1] (setting [3]) and 7.86 in assay [2] (setting [3]).
For the compound `COc1cc2ncnc(Nc3ccc(F)c(Cl)c3)c2cc1NC(=O)/C=C/CN1CCN(C(=O)CCCCSc2cccc3c2C(=O)N(C2CCC(=O)NC2=O)C3=O)CC1` (centres unmarked) [SIAIS249037, (E)-N-(4-((3-chloro-4-fluorophenyl)amino)-7-methoxyquinazolin-6-yl)-4-(4-(5-((2-(2,6-dioxopiperidin-3-yl)-1,3-dioxoisoindolin-4-yl)thio)pentanoyl)piperazin-1-yl)but-2-enamide], the pIC50 was 8.18 in assay [1] (WST (CCK8)) and 7.54 in assay [2] (WST (CCK8)).
Take `COc1cc2ncnc(Nc3ccc(F)c(Cl)c3)c2cc1NC(=O)/C=C/CN1CCC(N2CCN(Cc3ccc(CSc4cccc5c4CN(C4CCC(=O)NC4=O)C5=O)cc3)CC2)CC1` (centres unmarked) [SIAIS337021, (E)-N-(4-((3-chloro-4-fluorophenyl)amino)-7-methoxyquinazolin-6-yl)-4-(4-(4-(4-(((2-(2,6-dioxopiperidin-3-yl)-1-oxoisoindolin-4-yl)thio)methyl)benzyl)piperazin-1-yl)piperidin-1-yl)but-2-enamide]: the figures for the pIC50 in assay [1] (WST (CCK8)) and in assay [2] (WST (CCK8)) were 8.89 and 7.13, respectively.
On the same counts, the results for `COc1cc2ncnc(Nc3ccc(F)c(Cl)c3)c2cc1NC(=O)/C=C/CN1CCC(N2CCN(C(=O)CCCCCCCCCCSc3cccc4c3CN(C3CCC(=O)NC3=O)C4=O)CC2)CC1` (centres unmarked) [SIAIS337038, (E)-N-(4-((3-chloro-4-fluorophenyl)amino)-7-methoxyquinazolin-6-yl)-4-(4-(4-(11-((2-(2,6-dioxopiperidin-3-yl)-1-oxoisoindolin-4-yl)thio)undecanoyl)piperazin-1-yl)piperidin-1-yl)but-2-enamide] are 9.52 and 8.80.
As for `COc1cc2ncnc(Nc3ccc(F)c(Cl)c3)c2cc1NC(=O)/C=C/CN1CCC(N2CCN(C(=O)CCCCCNc3cccc4c3CN(C3CCC(=O)NC3=O)C4=O)CC2)CC1` (centres unmarked) [SIAIS337035, (E)-N-(4-((3-chloro-4-fluorophenyl)amino)-7-methoxyquinazolin-6-yl)-4-(4-(4-(6-((2-(2,6-dioxopiperidin-3-yl)-1-oxoisoindolin-4-yl)amino)hexanoyl)piperazin-1-yl)piperidin-1-yl)but-2-enamide], the figures for the pIC50 in assay [1] (WST (CCK8)) and in assay [2] (WST (CCK8)) were 8.37 and 8.20, respectively.
With `COc1cc2ncnc(Nc3ccc(F)c(Cl)c3)c2cc1NC(=O)/C=C/CN1CCC(NC(=O)CCOCCOCCNc2cccc3c2C(=O)N(C2CCC(=O)NC2=O)C3=O)CC1` (centres unmarked) [SIAIS249086, (E)-N-(4-((3-chloro-4-fluorophenyl)amino)-7-methoxyquinazolin-6-yl)-4-(4-(3-(2-(2-((2-(2,6-dioxopiperidin-3-yl)-1,3-dioxoisoindolin-4-yl)amino)ethoxy)ethoxy)propanamido)piperidin-1-yl)but-2-enamide], the values for the pIC50 in assay [1] (WST (CCK8)) and in assay [2] (WST (CCK8)) were 7.77 and 7.47, respectively.
As to `COc1cc2ncnc(Nc3ccc(F)c(Cl)c3)c2cc1NC(=O)/C=C/CN1CCC(NC(=O)CSc2cccc3c2CN(C2CCC(=O)NC2=O)C3=O)CC1` (centres unmarked) [SIAIS262110, (E)-N-(4-((3-chloro-4-fluorophenyl)amino)-7-methoxyquinazolin-6-yl)-4-(4-(2-((2-(2,6-dioxopiperidin-3-yl)-1-oxoisoindolin-4-yl)thio)acetamido)piperidin-1-yl)but-2-enamide], the pIC50 in assay [1] (WST (CCK8)) was 7.70; in assay [2] (WST (CCK8)), 7.14.
For `COc1cc2ncnc(Nc3ccc(F)c(Cl)c3)c2cc1NC(=O)/C=C/CN1CCC(N2CCN(C(=O)CCC(=O)NCCOCCNc3cccc4c3C(=O)N(C3CCC(=O)NC3=O)C4=O)CC2)CC1` (centres unmarked) [SIAIS249103, (E)-N-(4-((3-chloro-4-fluorophenyl)amino)-7-methoxyquinazolin-6-yl)-4-(4-(4-(4-((2-(2-((2-(2,6-dioxopiperidin-3-yl)-1,3-dioxoisoindolin-4-yl)amino)ethoxy)ethyl)amino)-4-oxobutanoyl)piperazin-1-yl)piperidin-1-yl)but-2-enamide], the values for the pIC50 in assay [1] (WST (CCK8)) and in assay [2] (WST (CCK8)) were 7.89 and 7.69, respectively.
`C=CC(=O)Nc1cc2c(Nc3ccc(F)c(Cl)c3)ncnc2cc1OCCCN1CCN(C(=O)CCN2CCN(CCC(=O)N[C@H](C(=O)N3C[C@H](O)C[C@H]3C(=O)NCc3ccc(-c4scnc4C)cc3)C(C)(C)C)CC2)CC1` [SIAIS249101, (2S,4R)-1-((S)-2-(3-(4-(3-(4-(3-((6-acrylamido-4-((3-chloro-4-fluorophenyl)amino)quinazolin-7-yl)oxy)propyl)piperazin-1-yl)-3-oxopropyl)piperazin-1-yl)propanamido)-3,3-dimethylbutanoyl)-4-hydroxy-N-(4-(4-methylthiazol-5-yl)benzyl)pyrrolidine-2-carboxamide]: the pIC50 was 7.15 in assay [1] (setting [3]) and 7.23 in assay [2] (setting [3]).
Consider `COc1cc2ncnc(Nc3ccc(F)c(Cl)c3)c2cc1NC(=O)/C=C/CN1CCN(C(=O)CCCCCCSc2cccc3c2C(=O)N(C2CCC(=O)NC2=O)C3=O)CC1` (centres unmarked) [SIAIS249039, (E)-N-(4-((3-chloro-4-fluorophenyl)amino)-7-methoxyquinazolin-6-yl)-4-(4-(7-((2-(2,6-dioxopiperidin-3-yl)-1,3-dioxoisoindolin-4-yl)thio)heptanoyl)piperazin-1-yl)but-2-enamide], for which the pIC50 was 8.28 in assay [1] (WST (CCK8)) and 7.73 in assay [2] (WST (CCK8)).
Take `COc1cc2ncnc(Nc3ccc(F)c(Cl)c3)c2cc1NC(=O)/C=C/CN1CCC(N2CCN(CCCCCCOc3cccc4c3CN(C3CCC(=O)NC3=O)C4=O)CC2)CC1` (centres unmarked) [SIAIS337029, (E)-N-(4-((3-chloro-4-fluorophenyl)amino)-7-methoxyquinazolin-6-yl)-4-(4-(4-(6-((2-(2,6-dioxopiperidin-3-yl)-1-oxoisoindolin-4-yl)oxy)hexyl)piperazin-1-yl)piperidin-1-yl)but-2-enamide]: the pIC50 was 9.52 in assay [1] (WST (CCK8)) and 7.55 in assay [2] (WST (CCK8)).
On to `COc1cc2ncnc(Nc3ccc(F)c(Cl)c3)c2cc1NC(=O)/C=C/CN1CCC(N2CCN(C(=O)CCCCCCNc3cccc4c3CN(C3CCC(=O)NC3=O)C4=O)CC2)CC1` (centres unmarked) [SIAIS337036, (E)-N-(4-((3-chloro-4-fluorophenyl)amino)-7-methoxyquinazolin-6-yl)-4-(4-(4-(7-((2-(2,6-dioxopiperidin-3-yl)-1-oxoisoindolin-4-yl)amino)heptanoyl)piperazin-1-yl)piperidin-1-yl)but-2-enamide], for which the pIC50 was 9.15 in assay [1] (WST (CCK8)) and 8.89 in assay [2] (WST (CCK8)).
